Measurements reported in article PMC6630718, “Discovery of Novel UV-Filters with Favorable Safety Profiles in the 5-Arylideneimidazolidine-2,4-dione Derivatives Group” (Molecules, 2019).

Assays:
[1] = In vitro stability in mouse liver microsomes; type: in vitro ADME; conditions: for half-life at 20 µM / microsomal CLint at 20 µM: mouse; for half-life at 20 µM: pH 7.4, mouse liver microsomes 0.8 mg/mL, read-out: t ½; for microsomal CLint at 20 µM: pH 7.4, mouse liver microsomes
Method: Mouse liver microsomes (MLMs) were used to investigate the phase I metabolism of selected compounds (2c, 2d, 3b, 4g, 5a) and the reference substance BP-2. Samples composed of test compound (20 µM), MLMs (0.8 mg/mL) and potassium phosphate buffer (100 mM, pH 7.4) were preincubated prior to addition of NADPH-regenerating system. NADPH-regenerating system contained NADP, glucose-6-phosphate, glucose-6-phosphate dehydrogenase and potassium phosphate buffer (100 mM, pH 7.4). Control incubations were performed in the absence of the NADPH-regenerating system and in case of esters (2c, 2d, 3b and 4g) without the mouse liver microsomes solution to determine spontaneous hydrolysis. Incubations were conducted at 37 °C for at least 15 min up to 60 min. The reactions were stopped by the addition of 250 μL ice-cold methanol containing internal standard PTX (20 μM). The mixture was then centrifuged. Supernatant analysis was performed using UPLC/MS (Waters Corporation). The assays were repeated two times. The in vitro half times (t1/2) for test compounds were determined from the slope of the linear regression of ln % parent compound remaining versus incubation time. The calculated t1/2 was incorporated into the following equation to obtain intrinsic clearance: (Clint) = (volume of incubation [µL]/ protein in the incubation [mg]) × 0.693 / t1/2 [74].

[2] = system: estrogen-dependent MCF-7 breast cancer cell line; assay: Estrogenic activity: MCF-7 proliferation, crystal violet assay; type: cell-based, human; conditions: 5 μM, 120 h, estrogen- and phenol red-free medium
Method: To determine estrogenic activity of tested compounds their influence on estrogen-dependent MCF-7 breast cancer cell line proliferation was investigated. Cells were seeded into 24-wells plates in density of 40,000 per well. After 24 h incubation, cells were washed twice with PBS and fresh, estrogen- and phenol red-free medium (DMEM low-glucose; 2,5% Charcoal Stripped FBS; 2 mM glutamine; Sigma Aldrich, Darmstadt, Germany) was added. […] After 120 h incubations, cells proliferation was determined with crystal violet assay. Briefly, cells were washed with PBS and fixed with 3,7% formaldehyde. Then, crystal violet solution was added for 10 minutes. After incubation, solution was removed and cells were washed five times with PBS. Crystal violate was extracted from cells using destaining solution (1,33% citric acid, 1,09% sodium citrate in water/methanol (1:1) solution) and absorbance of the solution was determined at 570 nm (A570). Proliferation rate was determined by dividing the A570 of experimental wells by the A570 of control wells × 100%.

[3] = Solubility in cosmetic solvents / macrogol formulations; type: physicochemical; conditions: typical cosmetic solvents / formulations used
Excerpt: The composition of formulations and concentration of tested compounds were based on their limited solubility. N-monosubstituted compounds 2a–2e were insoluble at desirable concentrations in the typical solvents used in cosmetic formulations such as alcohols, triacetin, surfactants, and co-surfactants. To dissolve compounds 2a and 2b before incorporation to the formulation DMSO: Tween 20 (1:9 w/w) was used, for less soluble 2c–2e it was necessary to use DMSO alone as solvent. […] Thus the detailed composition of the formulations is as follows: F1–Tween 20 43.2%, PEG-400 25%, PEG-1500 25%, Triacetin 4.8%, tested compound 2%; F2–Tween 20 43.2%, PEG-400 25%, PEG-1500 25%, DMSO 4.8%, tested compound 2%; F3–PEG-400 25%, PEG-1500 25%, DMSO 48%, tested compound 2%. Considering the disadvantages of currently reported macrogol formulations and the low concentration achieved for the tested compounds (2%), we plan to work on cosmetic emulsions containing the most promising derivatives at higher concentrations as well as required excipients including preservatives, antioxidants, etc. This research will be carried out in the near future.

[4] = Photostability in methanol solutions (solar light simulator); type: physicochemical; parameters: λmax pre-irradiation: unit not given beside the values; conditions: methanol solution; for % of initial AUC post-irradiation / λmax post-irradiation: 1h irradiation at 500 W/m2
In short: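 Compounds at 25 or 50 µM in methanol, in stoppered quartz cuvettes, were irradiated 1 h at 500 W/m^2 (UV dose 218 kJ/m^2). A solar simulator filtered below 290 nm with an IR block was used. UV absorption spectra before and after irradiation were compared, with UPLC-MS/MS analysis, in duplicate.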

[5] = In vitro photoprotection study of 2% (w/w) macrogol formulations on PMMA plates
In short: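 Compounds at 2% in macrogol (PEG-400/PEG-1500) formulations, predissolved in triacetin:Tween 20 (1:9) or DMSO; 32.5 mg applied to 25 cm² PMMA plates (5 µm roughness), glycerin-treated plate as reference. Per EN ISO 24443:2012, modified: reflectance absorbance 290–400 nm in 1 nm steps, averaged over 12 scans.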

[6] = Ultraviolet spectroscopy in methanol solutions; type: physicochemical; conditions: for Absorption Range: scan range 290–400 nm
In short: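 Spectra recorded from 290–400 nm in methanol (50 or 25 μM) in 1 cm quartz cuvettes. εmax taken as the slope of absorbance vs. concentration over 10–50 μM or 2.5–30 μM.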

[7] = Photostability in macrogol formulations on PMMA plates (solar light simulator); type: physicochemical
In short: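 Macrogol formulations (2% w/w) applied at 1.3 mg/cm² on PMMA plates were irradiated 1 h at 500 W/m² (218 kJ/m² UV) in a solar simulator with <290 nm cut-off and IR block. SPFin vitro, UVA PF and AUC were compared before and after exposure, with methanol washes analysed by UPLC-MS/MS, in duplicate.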

[8] = Neurocytotoxicity, MTT assay; type: cell-based; conditions: human, SH-SY5Y neuroblastoma cells, highest concentration (50 µM), read-out: cell viability (% of control)
Method: For […] assays a human neuroblastoma cell line—SH-SY5Y (CRL-2266™, ATCC) and a human hepatocellular carcinoma cell line–HepG2, respectively have been used. Cells were seeded on 96-well plates at an initial density of 10,000 cells per well. Cells were cultured in standard conditions for 24 h and then study compounds were administrated at different concentrations (10–50 μM) for another 24 h. After incubation time cells viability was measured with MTT assay. For this purpose culture medium has been replaced for the fresh one and MTT reagent (3-(4,5-dimethylthiazol-2-yl)-2,5-diphenyltetrazolium bromide) has been added at the concentration 0.5 mg/mL. Cells were incubated with MTT reagent at 37 °C for 4 h. Then formazan crystals have been dissolved in DMSO solution and the absorbance has been measured at 570 nm. Experiments were conducted in triplicates. Values represent mean percent of viability (in the percent of control).

[9] = MTT cytotoxicity, skin panel model (melanocytes); type: cell-based; conditions: Primary Epidermal Melanocytes (PCS-200-013, ATCC), human primary dermal melanocytes, highest tested concentration (50 µM), read-out: cell viability (% of control)
Method: Primary Epidermal Melanocytes were cultured in Dermal Cell Basal Medium (ATCC) supplemented with Adult Melanocyte Growth Kit Components (ATCC), HaCaT and BJ cells were cultured in Dulbecco’s modified Eagle’s medium (DMEM; New York, NY, USA) and supplemented with 10% fetal bovine serum (FBS; Gibco, New York, NY, USA). Cell maintenance was performed in a humidified incubator at 37 °C with 5% CO2. Cells were passage when the culture has reached approximately 80 to 90% confluence. Cells were seeded at density of 6 × 10^3 on 96-well plates. Following overnight culture, the cells were then treated with increasing doses of compounds and incubated for 24 h. Following cell exposure to each drug for 24 h, 10 µL MTT reagent (Sigma Aldrich, Darmstadt, Germany) was added to each well. After 4 hours incubation (37 °C, 5% CO2), the medium was aspirated and the formazan produced in the cells appeared as dark crystals in the bottom of the wells. Next, DMSO (dissolving solution) was added to each wells. Then the optical density (OD) of solution was determined at 570 nm on micro plate reader (Spectra iD3 Max, Molecular Devices; San Jose, CA, USA). Viability (% of control) was determined by dividing A570 of experimental wells by of A570 of control wells × 100%.

[10] = mouse liver microsomes, calculated from t1/2
[11] = 2% (w/w) macrogol formulation F2 (DMSO 4.8%)
[12] = after 1 h irradiation at 500 W/m^2, formulation F2 (DMSO 4.8%)
[13] = after 1 h irradiation at 500 W/m^2, formulation F3 (DMSO 48%)
[14] = mouse liver microsomes, 20 µM compound, NADPH-regenerating system, 37 °C
[15] = 2% (w/w) macrogol formulation F3 (DMSO 48%)
[16] = 2% (w/w) macrogol formulation F1 (Triacetin 4.8%)
[17] = after 1 h irradiation at 500 W/m^2, formulation F1

O=C(c1ccc(O)cc1O)c1ccc(O)cc1O [BP-2, benzophenone-2, reference compound]
t ½ ([1]; mouse liver microsomes 0.8 mg/mL, 20 µM compound, NADPH-regenerating system, 37 °C): 66 min
Clint [1, 10]: 13 µL/min/mg
stimulation of MCF-7 proliferation [2]: over 60%

CCOC(=O)CN1C(=O)N/C(=C\c2ccccc2)C1=O [Compound 2a, Ethyl (Z)-2-(4-benzylidene-2,5-dioxoimidazolidin-1-yl)acetate]
solubility (in words) [3]: only slightly soluble
decrease of AUC after irradiation [4]: ~30%
shift of λmax after irradiation [4]: 1 nm
λmax pre-irradiation [4]: 316
% of initial AUC post-irradiation [4]: 70.45%
λmax post-irradiation [4]: 317
SPFin vitro [5, 11]: 4.79 ± 0.02
UVA PF [5, 11]: 2.40 ± 0.01
UVA/UVB Ratio [5, 11]: 0.35 ± 0.00
λc (critical wavelength) [5, 11]: 339 nm
melting point: 169 to 171 °C
εmax [6]: 28460 M⁻¹ cm⁻¹
λmax [6]: 316 nm
Absorption Range [6]: 290–345 nm
improvement of the functional photostability ([7]; DMSO in formulation reduced from 48 to 4.8%): 31.1%
% of Initial AUC [7, 12]: 62.42%
% of Initial SPFin vitro [7, 12]: 55.49%
% of Initial UVA PF [7, 12]: 68.96%
% of Initial AUC [7, 13]: 46.72%
% of Initial SPFin vitro [7, 13]: 33.25%
% of Initial UVA PF [7, 13]: 37.87%
percentage of photoisomer formation ([7]; two formulations differing in the content of DMSO (48 and 4.8%), which value belongs to which is not given): 48%

CCOC(=O)CN1C(=O)N/C(=C\c2ccc(OC)cc2OC)C1=O [Compound 2d, Ethyl (Z)-2-(4-(2,4-dimethoxybenzylidene)-2,5-dioxoimidazolidin-1-yl)acetate]
Probable Transformation ([1]; mouse liver microsomes): O-dealkylation
half-life at 20 µM [1, 14]: 15 min
microsomal CLint at 20 µM [1, 10]: 59 µL/min/mg
λmax pre-irradiation [4]: 349
% of initial AUC post-irradiation [4]: 100.96%
λmax post-irradiation [4]: 354
SPFin vitro [5, 15]: 2.00 ± 0.11
UVA PF [5, 15]: 4.48 ± 0.38
UVA/UVB Ratio [5, 15]: 2.59 ± 0.09
λc (critical wavelength) [5, 15]: 386 nm
melting point: 197 to 198 °C
εmax [6]: 30700 M⁻¹ cm⁻¹
λmax [6]: 349 nm
Absorption Range [6]: 290–394 nm
% of Initial AUC [7, 13]: 58.87%
% of Initial SPFin vitro [7, 13]: 75.69%
% of Initial UVA PF [7, 13]: 51.45%
decrease of tested parameters (SPFin vitro, UVA PF, AUC) after irradiation ([7]; formulation with DMSO 48% (F3), extreme values): 41.1%

CCOC(=O)CN1C(=O)N/C(=C\c2ccc(OC)c(OC)c2)C1=O [Compound 2e, Ethyl (Z)-2-(4-(3,4-dimethoxybenzylidene)-2,5-dioxoimidazolidin-1-yl)acetate]
Probable Transformation ([1]; mouse liver microsomes): O-dealkylation
half-life at 20 µM [1, 14]: 41 min
microsomal CLint at 20 µM [1, 10]: 21 µL/min/mg
λmax pre-irradiation [4]: 344
% of initial AUC post-irradiation [4]: 97.8%
λmax post-irradiation [4]: 351
SPFin vitro [5, 15]: 2.50 ± 0.08
UVA PF [5, 15]: 4.77 ± 0.24
UVA/UVB Ratio [5, 15]: 1.95 ± 0.02
λc (critical wavelength) [5, 15]: 379 nm
melting point: 198 to 200 °C
εmax [6]: 30740 M⁻¹ cm⁻¹
λmax [6]: 344 nm
Absorption Range [6]: 290–381 nm
% of Initial AUC [7, 13]: 41.99%
% of Initial SPFin vitro [7, 13]: 56.00%
% of Initial UVA PF [7, 13]: 38.99%

Cc1ccc(/C=C2/C(=O)C3(C)CCC2C3(C)C)cc1 (stereo not drawn) [Compound 4-MBC, 4-methylbenzylidene camphor, reference compound]
λmax pre-irradiation [4]: 299
% of initial AUC post-irradiation [4]: 87.76%
λmax post-irradiation [4]: 303
UVA PF [5, 16]: 1.08 ± 0.1
UVA/UVB Ratio [5, 16]: 0.00 ± 0.00
λc (critical wavelength) [5, 16]: 316 nm
SPFin vitro ([5]; 2% (w/w) macrogol formulation F1 (Tween 20, PEG-400, PEG-1500, Triacetin 4.8%)): 5.59 ± 0.27
εmax [6]: 25550 M⁻¹ cm⁻¹
λmax [6]: 299 nm
Absorption Range [6]: 290–332 nm
% of Initial AUC [7, 17]: 90.89%
% of Initial SPFin vitro [7, 17]: 91.05%
% of Initial UVA PF [7, 17]: 101.39%
viability at 24 h, 50 µM [8]: < 31%
viability at 24 h, 50 µM [9]: < 36%
